Reference: patent US8188085B2, “Antifungal agents” (Merck Sharp & Dohme Corp., priority 2008, dated 2012)

These compounds were tested against glucan synthase (GS) prepared from Candida albicans MY1055 (Candida albicans, UniProt O13428) (assay: Glucan synthase inhibition (polymerization assay, 96-well)). Conditions: GS from C. albicans MY1055; 60 min incubation at 22° C.
Format: biochemical
Description: The in vitro evaluation of glucan synthase inhibitory activity of compounds was measured in a polymerization assay in 96-well format. Each well contained 100 μL of ^3H-UDPG at 0.5 mM (6000 to 8000 dpm/nmol), 50 mM HEPES pH 7.5 (Sigma), 10% w/v glycerol (Sigma), 1.5 mg/mL bovine serum albumin (Sigma A 9647. Lot 44H0190), 25 mM KF (Fisher), 1 mM EDTA (Gibco ULTRAPURE), 25 μM GTP-γ-S, enzyme sufficient to give 3 to 6 nmoles incorporation during the 60 min incubation at 22° C., and test compound added from wells in 3-fold serial dilutions in 100% DMSO (1 μL/well). The reaction was stopped by the addition of 100 μL of 20% trichloroacetic acid. Plates were chilled for a minimum of 10 min, and precipitated glucan collected by filtration on GF/C plates (Packard UNIFILTER®-96), washed with 5 cycles of water (about 1 mL/well each cycle) using a Packard FILTERMATE HARVESTER. 40 μL/well scintillation fluid (Packard ULTIMA GOLD TM-XR) was added and the sealed plates counted in a WALLAC BETA counter in top-counting mode at an efficiency of approximately 40%.
Stock solutions were stored at 10 mg/mL in DMSO at −20° C. For each new enzyme preparation, the initial titration performed started at 1 mg/mL, which was prepared by making a 10-fold dilution in DMSO (5 μL to 50 μL). 40 μL of this stock was placed in column 12 of a round-bottomed 96-well microtiter plate. 40 μL DMSO was added to columns 1 to 11 in the same row and ten 3-fold serial dilutions performed, by transferring 20 μL from column 12 to column 11 etc., with 4 mixings before each transfer. No test compound was transferred to from column 2 to column 1. Duplicate aliquots of 1 μL of all 12 dilutions were then transferred to the side walls of a 96-well Bioblock 1.1 mL plate (Fisher brand) to create two rows.
Graphs of the primary data were created in PRISM software (the average of two determinations) using PRISM's curve fitting program (sigmoidal dose response non-linear regression). The amount of compound required to inhibit glucan synthase activity by 50% in this assay (IC50−ng/mL) was calculated.
Routine analysis was performed with glucan synthase (GS) prepared from Candida albicans MY1055 by the following procedure: MY1055 was grown in 10 liters YPD medium (10 g yeast extract, 20 g tryptone, 20 g glucose per liter) with vigorous shaking at 30° C., to early stationary phase. Cells were harvested by centrifugation, the pellet was washed and frozen at −70° C. until breakage. Thawed pellets were shaken with an equal volume of breakage buffer (50 mM HEPES pH 7.4, 10% glycerol, 1 mM EDTA, 1 mM PMSF, 1 mM DTT) and 4 times their weight of 0.5 mm acid washed glass beads for 2 hours at 4° C. Extent of breakage was assessed visually at 40× magnification. After low speed centrifugation to remove cell debris, the supernatant was centrifuged at 100,000×g for 60 min. to separate membranes plus ribosomes from cytoplasmic components. Membranes were further washed two additional times with breakage buffer using the same centrifugation conditions and finally suspended in breakage buffer at 25 to 30 mg/mL protein (Biorad) for storage at −70° C. Extraction of GS activity from membranes was performed at a protein concentration of 5 mg/mL in extraction buffer (50 mM NaPO4 pH 7.5, 0.1 M KCl, 0.1M Na citrate, 20% glycerol, 5 μM GTP-γ-S, 1 mM DTT, 1 mM PMSF, 3 μg/mL pepstatin) plus 0.25% W1 by gentle mixing at 4° C. for 60 min, followed by centrifugation at 100,000×g for 60 min. After centrifugation, clear supernatant was removed from a pellet consisting of a hard layer usually with small amounts of gelatinous unextracted membranes above it.
Trapping was initiated immediately by 5-fold dilution in trapping buffer (50 mM HEPES pH 7.5, 10 mM KF, 1 mM EDTA, 2 mg/mL BSA) plus 2.5 mM UDPG and 10 μM GTP-γ-S. After incubation at 25° C. for 60 to 90 minutes, glucan was harvested by low speed centrifugation (3,000×g, 10 min). […]

glucan synthase (GS) prepared from Candida albicans MY1055, sequence (O13428 1-1897): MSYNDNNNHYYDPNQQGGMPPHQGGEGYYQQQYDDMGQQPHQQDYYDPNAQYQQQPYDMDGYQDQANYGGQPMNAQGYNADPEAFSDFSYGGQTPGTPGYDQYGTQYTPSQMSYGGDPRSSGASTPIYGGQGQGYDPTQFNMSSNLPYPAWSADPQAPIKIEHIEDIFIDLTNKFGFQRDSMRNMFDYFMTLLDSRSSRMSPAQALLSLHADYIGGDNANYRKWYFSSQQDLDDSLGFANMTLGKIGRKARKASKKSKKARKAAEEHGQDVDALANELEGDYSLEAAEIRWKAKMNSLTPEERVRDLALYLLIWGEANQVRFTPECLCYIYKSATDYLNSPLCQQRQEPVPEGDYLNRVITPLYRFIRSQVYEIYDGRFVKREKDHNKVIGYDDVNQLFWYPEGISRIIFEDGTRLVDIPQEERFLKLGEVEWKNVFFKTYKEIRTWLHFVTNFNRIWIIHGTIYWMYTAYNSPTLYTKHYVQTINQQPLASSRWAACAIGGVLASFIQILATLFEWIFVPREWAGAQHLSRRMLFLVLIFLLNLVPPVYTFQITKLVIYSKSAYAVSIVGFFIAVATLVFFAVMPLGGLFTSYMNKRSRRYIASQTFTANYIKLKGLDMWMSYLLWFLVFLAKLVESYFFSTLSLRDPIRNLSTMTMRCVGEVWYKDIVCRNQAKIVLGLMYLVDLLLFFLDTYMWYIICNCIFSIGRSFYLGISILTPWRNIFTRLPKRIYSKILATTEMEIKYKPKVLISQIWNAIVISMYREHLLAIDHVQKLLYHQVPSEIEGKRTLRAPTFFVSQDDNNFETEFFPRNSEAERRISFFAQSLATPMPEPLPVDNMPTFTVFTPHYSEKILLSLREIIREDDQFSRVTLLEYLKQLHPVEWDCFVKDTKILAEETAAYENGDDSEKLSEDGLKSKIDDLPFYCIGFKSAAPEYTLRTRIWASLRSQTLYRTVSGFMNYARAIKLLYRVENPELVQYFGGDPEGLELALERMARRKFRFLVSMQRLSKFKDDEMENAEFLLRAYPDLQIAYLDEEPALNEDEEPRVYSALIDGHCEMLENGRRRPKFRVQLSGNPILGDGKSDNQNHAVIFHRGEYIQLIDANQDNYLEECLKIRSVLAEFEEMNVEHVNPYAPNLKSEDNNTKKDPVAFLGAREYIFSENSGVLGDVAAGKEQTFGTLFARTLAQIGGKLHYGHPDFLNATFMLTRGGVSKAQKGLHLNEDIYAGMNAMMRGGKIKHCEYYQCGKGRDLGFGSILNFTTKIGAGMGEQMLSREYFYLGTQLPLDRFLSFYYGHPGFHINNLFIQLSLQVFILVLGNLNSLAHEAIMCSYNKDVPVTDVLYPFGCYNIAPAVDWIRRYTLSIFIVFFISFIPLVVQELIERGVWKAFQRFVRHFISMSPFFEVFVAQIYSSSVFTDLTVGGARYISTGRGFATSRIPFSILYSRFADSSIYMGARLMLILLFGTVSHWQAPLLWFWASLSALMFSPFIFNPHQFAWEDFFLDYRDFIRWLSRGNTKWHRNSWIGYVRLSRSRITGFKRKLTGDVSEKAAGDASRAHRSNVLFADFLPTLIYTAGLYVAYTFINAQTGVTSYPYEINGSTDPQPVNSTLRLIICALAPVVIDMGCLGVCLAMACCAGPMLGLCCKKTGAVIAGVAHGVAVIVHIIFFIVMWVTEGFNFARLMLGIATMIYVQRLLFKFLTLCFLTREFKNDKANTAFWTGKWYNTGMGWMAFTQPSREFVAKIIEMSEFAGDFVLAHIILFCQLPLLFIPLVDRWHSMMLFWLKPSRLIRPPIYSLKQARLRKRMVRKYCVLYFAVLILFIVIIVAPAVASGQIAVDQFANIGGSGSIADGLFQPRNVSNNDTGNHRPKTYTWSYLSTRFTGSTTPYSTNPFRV

| SMILES | Candida Albicans GS IC50 |
| --- | --- |
| CN[C@@](C)(CO[C@H]1[C@H](n2ncnc2I)C[C@@]23COC[C@]1(C)[C@@H]2CC[C@H]1C3=CC[C@@]2(C)[C@H](C(=O)O)[C@@](C)([C@H](C)C(C)C)CC[C@]12C)C(C)C (racemic) [Example 22, (1S,4aR,6aS,7R,8R,10aR,10bR,12aR,14R,1SR)-15-[[(2R)-2,3-dimethyl-2-(methylamino)butyl]oxy]-8-[(1R)-1,2-dimethylpropyl]-14-(5-iodo-1H-1,2,4-triazol-1-yl)-1,6,6a,7,8,9,10,10a,10b,11,12,12a-dodecahydro-1,6a,8,10a-tetramethyl-4H-1,4a-propano-2H-phenanthro[1,2-c]pyran-7-carboxylic acid] | 5 ng/mL |

Same assay, conditions: GS from C. albicans MY1055; 60 min incubation at 22° C.; read-out: Candida Albicans GS IC50 (converted)

| SMILES | IC50 |
| --- | --- |
| COC(=O)c1ncn([C@@H]2C[C@@]34COC[C@](C)([C@@H]3CC[C@H]3C4=CC[C@@]4(C)[C@H](C(=O)O)[C@@](C)([C@H](C)C(C)C)CC[C@]34C)[C@H]2OC[C@](C)(N)C(C)C)n1 (single isomer, unassigned) [Example 8A] | 5.74 nM |
| CC(C)[C@@H](C)[C@@]1(C)CC[C@]2(C)[C@H]3CC[C@@H]4[C@@]5(COC[C@@]4(C)[C@@H](OC[C@](C)(N)C(C)C)[C@H](n4nc(Br)nc4[N+](=O)[O-])C5)C3=CC[C@@]2(C)[C@@H]1C(=O)O (single isomer, unassigned) [Example 29B] | 81.3 nM |
| CC(C)[C@@H](C)[C@@]1(C)CC[C@]2(C)[C@H]3CC[C@@H]4[C@@]5(COC[C@@]4(C)[C@@H](OC[C@](C)(N)C(C)C)[C@H](n4nc(N)nc4C4CC4)C5)C3=CC[C@@]2(C)[C@@H]1C(=O)O (single isomer, unassigned) [Example 32A] | 4.32 nM |
| CC(C)NC(=O)c1ncn([C@@H]2C[C@@]34COC[C@](C)([C@@H]3CC[C@H]3C4=CC[C@@]4(C)[C@H](C(=O)O)[C@@](C)([C@H](C)C(C)C)CC[C@]34C)[C@H]2OC[C@](C)(N)C(C)C)n1 (single isomer, unassigned) [Example 37B] | 60.8 nM |
| CC(C)[C@@H](C)[C@@]1(C)CC[C@]2(C)[C@H]3CC[C@@H]4[C@@]5(COC[C@@]4(C)[C@@H](OC[C@](C)(N)C(C)C)[C@H](n4nccn4)C5)C3=CC[C@@]2(C)[C@@H]1C(=O)O (single isomer, unassigned) [Example 288B] | 17.2 nM |
| COC(=O)c1cnnn1[C@@H]1C[C@@]23COC[C@](C)([C@@H]2CC[C@H]2C3=CC[C@@]3(C)[C@H](C(=O)O)[C@@](C)([C@H](C)C(C)C)CC[C@]23C)[C@H]1OC[C@](C)(N)C(C)C (single isomer, unassigned) [Example 289B] | 126 nM |
| CC(C)[C@@H](C)[C@@]1(C)CC[C@]2(C)[C@H]3CC[C@@H]4[C@@]5(COC[C@@]4(C)[C@@H](OC[C@](C)(N)C(C)C)[C@H](n4nccc4[N+](=O)[O-])C5)C3=CC[C@@]2(C)[C@@H]1C(=O)O (single isomer, unassigned) [Example 293B] | 4.39 nM |
| CC(C)[C@@H](C)[C@@]1(C)CC[C@]2(C)[C@H]3CC[C@@H]4[C@@]5(COC[C@@]4(C)[C@@H](OCC4COCCN4)[C@H](n4ncnc4-c4ccncc4)C5)C3=CC[C@@]2(C)[C@@H]1C(=O)O (single isomer, unassigned) [Example 303A] | 30.7 nM |
| CC(C)[C@@H](C)[C@@]1(C)CC[C@]2(C)[C@H]3CC[C@@H]4[C@@]5(COC[C@@]4(C)[C@@H](OC[C@](C)(N)C(C)(C)C)[C@H](n4cnnc4)C5)C3=CC[C@@]2(C)[C@@H]1C(=O)O [Example 1B, (1S,4aR,6aS,7R,8R,10aR,10bR,12aR,14R,15R)-15-[[(2R)-2-amino-2,3,3-trimethylbutyl]oxy]-8-[(1R)-1,2-dimethylpropyl]-14-(4H-1,2,4-triazol-4-yl)-1,6,6a,7,8,9,10,10a,10b,11,12,12a-dodecahydro-1,6a,8,10a-tetramethyl-4H-1,4a-propano-2H-phenanthro[1,2-c]pyran-7-carboxylic acid] | 42.9 nM |
| CN[C@](C)(CO[C@H]1[C@H](n2cncn2)C[C@@]23COC[C@]1(C)[C@@H]2CC[C@H]1C3=CC[C@@]2(C)[C@H](C(=O)O)[C@@](C)([C@H](C)C(C)C)CC[C@]12C)C(C)C [Example 3, (1S,4aR,6aS,7R,8R,10aR,10bR,12aR,14R,15R)-15-[[(2S)-2,3-dimethyl-2-(methylamino)butyl]oxy]-8-[(1R)-1,2-dimethylpropyl]-14-(1H-1,2,4-triazol-1-yl)-1,6,6a,7,8,9,10,10a,10b,11,12,12a-dodecahydro-1,6a,8,10a-tetramethyl-4H-1,4a-propano-2H-phenanthro[1,2-c]pyran-7-carboxylic acid] | 26 nM |
| CN[C@@](C)(CO[C@H]1[C@H](n2cnc(N)n2)C[C@@]23COC[C@]1(C)[C@@H]2CC[C@H]1C3=CC[C@@]2(C)[C@H](C(=O)O)[C@@](C)([C@H](C)C(C)C)CC[C@]12C)C(C)C [Example 5, (1S,4aR,6aS,7R,8R,10aR,10bR,12aR,14R,15R)-14-(3-amino-1H-1,2,4-triazol-1-yl)-15-[[(2R)-2,3-dimethyl-2-(methylamino)butyl]oxy]-8-[(1R)-1,2-dimethylpropyl]-1,6,6a,7,8,9,10,10a,10b,11,12,12a-dodecahydro-1,6a,8,10a-tetramethyl-4H-1,4a-propano-2H-phenanthro[1,2-c]pyran-7-carboxylic acid] | 12 nM |
| CC(C)[C@@H](C)[C@@]1(C)CC[C@]2(C)[C@H]3CC[C@@H]4[C@@]5(COC[C@@]4(C)[C@@H](OC[C@](C)(N)C(C)C)[C@H](n4cnc(Br)n4)C5)C3=CC[C@@]2(C)[C@@H]1C(=O)O [Example 6C, (1S,4aR,6aS,7R,8R,10aR,10bR,12aR,14R,15R)-15-[[(2R)-2-amino-2,3-dimethylbutyl]oxy]-14-(3-bromo-1H-1,2,4-triazol-1-yl)-8-[(1R)-1,2-dimethylpropyl]-1,6,6a,7,8,9,10,10a,10b,11,12,12a-dodecahydro-1,6a,8,10a-tetramethyl-4H-1,4a-propano-2H-phenanthro[1,2-c]pyran-7-carboxylic acid] | 47.4 nM |
| CC(C)[C@@H](C)[C@@]1(C)CC[C@]2(C)[C@H]3CC[C@@H]4[C@@]5(COC[C@@]4(C)[C@@H](OCC(C)(C(C)C)N(C)C)[C@H](n4ncnc4Cl)C5)C3=CC(=O)[C@@]2(C)[C@@H]1C(=O)O (stereo partly drawn) [Example 9B, (1S,4aR,6aS,7R,8R,10aR,10bR,12aR,14R,15R)-14-(5-chloro-1H-1,2,4-triazol-1-yl)-15-[2-(dimethylamino)-2,3-dimethylbutoxy]-8-[(1R)-1,2-dimethylpropyl]-1,6,6a,7,8,9,10,10a,10b,11,12,12a-dodecahydro-1,6a,8,10a-tetramethyl-6-oxo-4H-1,4a-propano-2H-phenanthro[1,2-c]pyran-7-carboxylic acid] | 36.3 nM |
| CC(C)[C@@H](C)[C@@]1(C)CC[C@]2(C)[C@H]3CC[C@@H]4[C@@]5(COC[C@@]4(C)[C@@H](OCC(C)(C(C)C)N(C)C)[C@H](n4cnc(Cl)n4)C5)C3=CC(=O)[C@@]2(C)[C@@H]1C(=O)O (stereo partly drawn) [Example 9C, (1S,4aR,6aS,7R,8R,10aR,10bR,12aR,14R,15R)-14-(3-chloro-1H-1,2,4-triazol-1-yl)-15-[2-(dimethylamino)-2,3-dimethylbutoxy]-8-[(1R)-1,2-dimethylpropyl]-1,6,6a,7,8,9,10,10a,10b,11,12,12a-dodecahydro-1,6a,8,10a-tetramethyl-6-oxo-4H-1,4a-propano-2H-phenanthro[1,2-c]pyran-7-carboxylic acid] | 74.1 nM |
